For 31 molecules, EC50 and Emax results are on record in patent publication US20080132505A1 (Glaxo Group Limited, priority 2004, published 2008).

In this experiment the target is human cannabinoid CB2 receptor (Homo sapiens, UniProt P34972). Briefly: Cannabinoid CB2 receptor agonist activity (yeast reporter assay, FDGlu fluorescence). In kind it is cell-based. The note with it: for EC50: EC50 value at the cloned human cannabinoid CB2 receptor; for Emax: read-out: efficacy value (Emax relative to HU210) at the cloned human cannabinoid CB2 receptor. Summed up: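 S. cerevisiae MMY23 expressing human CB2 with a Gpa1/Gαi3 chimeric G-protein, grown 24 h at 30 °C with agonist (1% DMSO) in selective media containing 10 mM 3-aminotriazole and FDGlu, pH 7.0. Fluorescein fluorescence (485/535 nm) fitted by four-parameter curve; Emax and EMR relative to HU210.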
Sequence of human cannabinoid CB2 receptor (P34972 whole entry): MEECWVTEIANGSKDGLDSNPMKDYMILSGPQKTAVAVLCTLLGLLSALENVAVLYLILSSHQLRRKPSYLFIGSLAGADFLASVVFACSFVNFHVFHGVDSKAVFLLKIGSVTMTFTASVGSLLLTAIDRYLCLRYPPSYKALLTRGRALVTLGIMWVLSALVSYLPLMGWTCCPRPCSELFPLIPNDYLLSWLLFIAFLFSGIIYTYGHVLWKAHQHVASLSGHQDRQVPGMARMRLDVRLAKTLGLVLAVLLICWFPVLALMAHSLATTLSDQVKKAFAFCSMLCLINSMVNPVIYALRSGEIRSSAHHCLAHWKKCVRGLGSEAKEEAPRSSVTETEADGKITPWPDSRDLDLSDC
Background: Reporter assays use an easily measured gene product as a stand-in for the process of interest.

Consider `CC(C)Cc1ccc(CNC(=O)c2cnc(Nc3cccc(Cl)c3)nc2C(F)(F)F)cc1` [Example 302, 2-(3-Chloro-phenylamino)-4-trifluoromethyl-pyrimidine-5-carboxylic acid 4-isobutyl-benzylamide], for which the EC50 (in general, the concentration needed to bring the measured effect to its halfway point) is 0.3 to 1 µM and the Emax (usually the maximal effect, on the per cent scale that the assay sets) is above 50%. Take `O=C(NCC1CCCCC1)c1cnc(Nc2cccc(Cl)c2)nc1C(F)(F)F` [Example 4, 2-(3-Chlorophenylamino)-4-trifluoromethylpyrimidine-5-carboxylic acid cyclohexylmethylamide]: the EC50 is 0.02 to 0.3 µM and the Emax is above 50%. The corresponding values for `O=C(NCC1CCC1)c1cnc(Nc2cccc(F)c2)nc1C(F)(F)F` [Example 198, 2-(3-Fluorophenylamino)-4-trifluoromethyl-pyrimidine-5-carboxylic acid cyclobutylmethyl-amide] are 0.02 to 0.3 µM and above 50%. For `O=C(NCC1CCC1)c1cnc(Nc2ccc(Cl)c(Cl)c2)nc1C(F)(F)F` [Example 204, 2-(3,4-Dichlorophenylamino)-4-trifluoromethyl-pyrimidine-5-carboxylic acid cyclobutylmethyl-amide] the same measures were 0.02 to 0.3 µM and above 50%. The corresponding values for `CN(CC1CCC1)C(=O)c1cnc(Nc2cccc(Cl)c2)nc1C(F)(F)F` [Example 188, 2-(3-Chlorophenylamino)-4-trifluoromethyl-pyrimidine-5-carboxylic acid cyclobutylmethyl-methyl-amide] are 0.02 to 0.3 µM and above 50%. `O=C(NCC1CCC1)c1cnc(Nc2ccc(F)cc2F)nc1C(F)(F)F` [Example 223, 2-(2,4-Difluoro-phenylamino)-4-trifluoromethyl-pyrimidine-5-carboxylic acid cyclobutylmethyl-amide]: the EC50 lay in the range of 0.02 to 0.3 µM and the Emax was above 50%. Regarding `Cc1cccc(Nc2ncc(C(=O)NCC3CCCCC3)c(C(F)(F)F)n2)c1Cl` [Example 92, 2-(2-Chloro-3-methyl-phenylamino)-4-trifluoromethyl-pyrimidine-5-carboxylic acid cyclohexylmethyl-amide], the EC50 lay in the range of 0.3 to 1 µM and the Emax is above 50%. For `O=C(NC1CCC1)c1cnc(Nc2cc(Cl)ccc2Cl)nc1C(F)(F)F` [Example 50, 2-(2,5-Dichlorophenylamino)-4-trifluoromethylpyrimidine-5-carboxylic acid cyclobutylamide], the EC50 lay within 0.02 to 0.3 µM and the Emax is above 50%. For `O=C(NCc1ccncc1)c1cnc(Nc2cccc(F)c2)nc1C(F)(F)F` [Example 285, 2-(3-Fluorophenylamino)-4-trifluoromethylpyrimidine-5-carboxylic acid (pyridin-4-ylmethyl)amide], the EC50 is 0.02 to 0.3 µM. As for `COc1cc(Nc2ncc(C(=O)NCC3CCOCC3)c(C(F)(F)F)n2)cc(C(F)(F)F)c1` [Example 177, 2-(3-Methoxy-5-(trifluoromethyl)phenylamino)-4-trifluoromethyl-pyrimidine-5-carboxylic acid (tetrahydropyran-4-ylmethyl)-amide], the EC50 was in the range of 0.02 to 0.3 µM and the Emax is above 50%. For the molecule `O=C(NCC1CCCCC1)c1cnc(Nc2ccc(Cl)cc2F)nc1C(F)(F)F` [Example 226, 2-(2-Fluoro-4-chloro-phenylamino)-4-trifluoromethyl-pyrimidine-5-carboxylic acid cyclohexylmethyl-amide], the EC50 was in the range of 0.02 to 0.3 µM and the Emax is above 50%. For `Cc1ccc(Cl)cc1Nc1ncc(C(=O)NCC2CCOCC2)c(C(F)(F)F)n1` [Example 108, 2-(5-Chloro-2-methyl-phenylamino)-4-tri-fluoromethyl-pyrimidine-5-carboxylic acid (tetrahydropyran-4-ylmethyl)-amide], the EC50 was 0.3 to 1 µM and the Emax was above 50%. For `O=C(NCC1CC1)c1cnc(Nc2cccc(Br)c2)nc1C(F)(F)F` [Example 240, 2-(3-Bromophenylamino)-4-trifluoromethyl-pyrimidine-5-carboxylic acid cyclopropylmethyl-amide], the EC50 lay within 0.02 to 0.3 µM and the Emax was above 50%.

As to `O=C(NCC1CCCCC1)c1cnc(Nc2ccc(Br)cc2C(F)(F)F)nc1C(F)(F)F` [Example 106, 2-(2-Trifluoromethyl-4-bromophenylamino)-4-trifluoromethyl-pyrimidine-5-carboxylic acid cyclohexylmethyl-amide], the EC50 was 0.3 to 1 µM and the Emax is above 50%. For `O=C(NCc1ccnc(F)c1)c1cnc(Nc2ccc(Cl)cc2Cl)nc1C(F)(F)F` [Example 360, 2-(2,4-Dichloro-phenylamino)-4-trifluoromethyl-pyrimidine-5-carboxylic acid (2-fluoro-pyridin-4-ylmethyl)-amide], the EC50 is 0.02 to 0.3 µM.

On to `O=C(NC1CCCC1)c1cnc(Nc2cccc(Cl)c2)nc1C(F)(F)F` [Example 14, 2-(3-Chlorophenylamino)-4-trifluoromethylpyrimidine-5-carboxylic acid cyclopentylamide], for which the half-maximal effective concentration (EC50) is 0.02 to 0.3 µM and the Emax is above 50%. `O=C(NCC1CCCC1)c1cnc(Nc2cccc(Cl)c2Cl)nc1C(F)(F)F` [Example 40, 2-(2,3-Dichlorophenylamino)-4-trifluoromethylpyrimidine-5-carboxylic acid cyclopentylmethyl-amide]: the EC50 fell in the range of 0.02 to 0.3 µM and the maximal effect (Emax) is above 50%.

`CN(CC1CCCCC1)C(=O)c1cnc(Nc2cccc(Cl)c2)nc1C(F)(F)F` [Example 189, 2-(3-Chlorophenylamino)-4-trifluoromethyl-pyrimidine-5-carboxylic acid cyclohexylmethyl-methyl-amide]: the EC50 fell in the range of 0.02 to 0.3 µM and the Emax was above 50%. As to `O=C(NCC1(O)CCCCC1)c1cnc(Nc2cccc(Cl)c2)nc1C(F)(F)F` [Example 164, 2-(3-Chlorophenylamino)-4-trifluoromethyl-pyrimidine-5-carboxylic acid (1-hydroxycyclohexylmethyl)-amide], the EC50 is 0.02 to 0.3 µM and the Emax is above 50%. With `COc1cccc(Nc2ncc(C(=O)NC3CCCC3)c(C(F)(F)F)n2)c1` [Example 76, 3-Methoxyphenylamino-4-trifluoromethyl-pyrimidine-5-carboxylic acid cyclopentylamide], the concentration giving a half-maximal response (EC50) was 0.3 to 1 µM and the Emax was above 50%. For the molecule `CC(C)c1cc(Nc2cccc(Cl)c2)ncc1C(=O)NCC1CCS(=O)(=O)C1` (centres unmarked) [Example 681, 6-(3-Chloro-phenylamino)-N-(1,1-dioxo-tetrahydro-1l^6-thiophen-3-ylmethyl)-4-isopropyl-nicotinamide], the Emax is above 50%. `O=C(NCC1CCC1)c1cnc(Nc2c(Cl)cccc2Cl)nc1C(F)(F)F` [Example 203, 2-(2,6-Dichlorophenylamino)-4-trifluoromethyl-pyrimidine-5-carboxylic acid cyclobutylmethyl-amide]: the EC50 is 0.02 to 0.3 µM and the Emax was above 50%. On to `O=C(NCC1CCC1)c1cnc(Nc2cccc(Cl)c2)nc1C(F)(F)F` [Example 54, 2-(3-Chlorophenylamino)-4-trifluoromethylpyrimidine-5-carboxylic acid cyclobutylmethyl-amide], for which the EC50 was in the range of 0.02 to 0.3 µM and the Emax is above 50%. In the case of `O=C(NCc1ccncc1)c1cnc(Nc2cc(Cl)cc(Cl)c2)nc1C(F)(F)F` [Example 287, 2-(3,5-Dichlorophenylamino)-4-trifluoromethylprimidine-5-carboxylic acid (pyridin-4-ylmethyl)amide], the EC50 is 0.02 to 0.3 µM. On the same count and under the same terms, under `O=C(NCc1ccc(F)cc1)c1cnc(Nc2cc(Cl)ccc2F)nc1C(F)(F)F` [Example 349, 2-(5-Chloro-2-fluoro-phenylamino)-4-trifluoromethyl-pyrimidine-5-carboxylic acid 4-fluoro-benzylamide] stands 0.02 to 0.3 µM.

For `O=C(NCC1CCCCC1)c1cnc(Nc2cc(Cl)ccc2F)nc1C(F)(F)F` [Example 168, 2-(5-Chloro-2-fluorophenylamino)-4-trifluoromethyl-pyrimidine-5-carboxylic acid cyclohexylmethyl-amide], the EC50 fell in the range of 0.02 to 0.3 µM and the Emax is above 50%. For `O=C(NCC1CCCC1)c1cnc(Nc2cc(F)cc(F)c2)nc1C(F)(F)F` [Example 96, 2-(3,5-Difluoro-phenylamino)-4-trifluoromethyl-pyrimidine-5-carboxylic acid cyclopentylmethyl-amide] the same measures were 0.3 to 1 µM and above 50%.

`O=C(NCC1CCC1)c1cnc(Nc2ccc(Cl)cc2Br)nc1C(F)(F)F` [Example 230, 2-(2-Bromo-4-chloro-phenylamino)-4-trifluoromethyl-pyrimidine-5-carboxylic acid cyclobutylmethyl-amide]: the EC50 lay within 0.02 to 0.3 µM and the Emax was above 50%. In the case of `N#Cc1ccc(Nc2ncc(C(=O)NCC3CCOCC3)c(C(F)(F)F)n2)c(Cl)c1` [Example 235, 2-(2-Chloro-4-cyano-phenylamino)-4-trifluoromethyl-pyrimidine-5-carboxylic acid (tetrahydro-pyran-4-ylmethyl)-amide], the half-maximal effective concentration (EC50) is 0.02 to 0.3 µM and the Emax was above 50%. In turn, `O=C(NCc1ccncc1)c1cnc(Nc2ccc(Cl)c(Cl)c2)nc1C(F)(F)F` [Example 283, 2-(3,4-Dichlorophenylamino)-4-trifluoromethylpyrimidine-5-carboxylic acid (pyridin-4-ylmethyl)amide] came in with an EC50 of 0.02 to 0.3 µM. With `O=C(NCC1CCCCC1)c1cnc(Nc2ccc(Cl)c(Cl)c2)nc1C(F)(F)F` [Example 17, 2-(3,4-Dichlorophenylamino)-4-trifluoromethylpyrimidine-5-carboxylic acid cyclohexylmethyl-amide], the EC50 was 0.02 to 0.3 µM and the Emax was above 50%.
